We go through 1 compound from publication PMC8741257, “Identification of novel non-toxic and anti-angiogenic α-fluorinated chalcones as potent colchicine binding site inhibitors” (Journal of Enzyme Inhibition and Medicinal Chemistry, 2022).

Assay [1] concerns MGC-803 (human gastric cancer cells). In words: Antiproliferative activity (SRB / CCK-8 assay). Format: cell-based. The conditions noted are these: mean ± SD. On the procedure:
MCF-7, MGC-803, Hela and HepG-2 cell lines were cultured in a base medium (90% DMEM and 10% FBS), A549 and U937 were cultured in a base medium (90% PRMI-1640 and 10% FBS) at 37 °C, 5% CO2 and a saturated humidity atmosphere. All the mediums were supplemented with 10% FBS and 1% […]/streptomycin (all cells were purchased from Shanghai Institutes for Biological Sciences, Chinese Academy of Sciences, Shanghai, China).
A549, MGC-803, MCF-7, HepG2 and Hela cells were seeded at the appropriate cell line density (3 × 10^3 to 4 × 10^3 cells/well). The cells were then incubated at 37 °C for 24 h in a humidified 5%CO2 in 96-well plates prior to experiments. After a further 72 h of incubation, cell proliferation was quantified with SRB ([…]) to determine the number of surviving cells. The absorbance at 560 nm was measured by microplate. The experiment was repeated three times, and the data were listed in the form of mean and standard deviation.
MGC-803 cells were collected and seeded into 96 well plates at a density of 8000/well. The mediums containing drugs and cell suspension were added into the well. The cells were incubated in 5% CO2 incubator at 37 °C for 72 h. Each well was added 10 µL CCK8 solution, and the incubation time was 3–4 h. The absorbance value at 450 nm was measured by microplate reader. Data are calculated with GraphPad Prism5 software.

Assay [2] concerns p-Cdc2, CyclinB1 and P21 in MGC-803 cells. In words: Western blot of G2/M regulatory proteins. The conditions noted are these: 18, 36, 72 nM, 48 h. Format: cell-based, human. The text has this:
Cdc2 kinase, a member of Ser/Thr protein family, is considered as a driving force of G2/M transition. Activation of Cdc2 catalysed the phosphorylation of a variety of substrate proteins, thus promoting cell transition from G2 phase to M phase. Cyclin B1 plays a vital role to control cell transition from G2 to M phase. P21 also effectively regulates cell cycle progress by increasing the intracellular G2/M phase ratio. Therefore, the expression of cell cycle checkpoint protein was investigated.
(§1) The protein levels in MGC-803 cells were assessed via western blot analysis. Exponentially growing MGC-803 cells were seeded at a density of 6 × 10^5/dishes and incubated overnight. Then 18, 36, 72nΜ of 4c were added in triplicate for 48 h incubation. After the cells were washed with cold PBS, the supernatant was removed. The supernatant was collected by centrifuging at 12,000 g for 10 min at 4 °C. The protein concentration in the supernatant was determined by using a BSA protein assay kit. Samples were prepared in SDS-PAGE loading buffer after BSA analysis to quantify proteins, then boiled for 10 min at 100 °C. Western blot analyses were conducted after separation by SDS-PAGE electrophoresis and transfer to nitrocellulose filter (NC) membranes. Immunoblotting was performed according to the antibody manufacturers’ recommendations.
(In general: A western blot detects proteins with antibodies after separation by electrophoresis.)

The test system of assay [3] is Caspase -3/-7/-9 and PARP in MGC-803 cells. In words: Western blot of apoptosis-related proteins. Type of assay: cell-based, human. The conditions noted are these: 18, 36 and 72 nM, 48 h. On the procedure:
The Caspase family proteins are considered to be critical regulators of cell apoptosis, in which Caspase-3 is one of the most important "executioner" of apoptosis induction, capable of cleaving many important cellular matrices and represent the hallmark of apoptosis. To explore the apoptosis-associated protein alterations, the expression of Caspase -3/-7/-9 and PARP was analysed.
as §1

Assay [4] concerns HUVECs (human umbilical vein endothelial cells). In words: Transwell cell invasion assay. Format: cell-based. The conditions noted are these: 2.5, 5 and 10 µM, 24 h. On the procedure: HUVECs (human umbilical vein endothelial cells) grown on Matrigel were commonly used as a tube formation model for studying the physiological and pathological processes of the vascular system in vitro, and a widely studied human endothelial cell type in angiogenesis. The effect of 4c on endothelial cell migration was assessed by using HUVECs. Standardised wounds were made in confluent monolayers of HUVECs and then exposed to compound 4c at 2.5, 5 and 10 µM for 48 h. […] We further evaluated the capacity of 4 s on endothelial cell invasion using a Transwell assay.
Matrix gel was thawed overnight at 4 °C. […] Then the cells were washed three times with PBS and fixed cells by 4% paraformaldehyde for 30 min. Subsequently, 0.2% crystal violet solution was added, stained for 30 min, and the invasion of cells was observed under the microscope. Transwell was placed into a 24-well plate, 35% acetic acid (300 μL) was added to the upper chamber of the chamber, and after acetic acid completely entered the lower chamber, 100 μL of acetic acid from the lower chamber was aspirated into a 96-well plate, and three replicate wells of each concentration were shaken for 10 min, and the absorbance was measured at 560 nm with an enzyme marker.

The test system of assay [5] is Tg(flk1: EGFP) zebrafish embryos. In words: Zebrafish angiogenesis assay. Format: in vivo. The protocol: Since zebrafish embryos emerged as a powerful model for studying human diseases, the transgenic zebrafish with green fluorescent protein (GFP) labelled endothelial cells have been used extensively for testing angiogenesis in vivo. In this work, an anti-angiogenetic activity of 4c was confirmed by Tg(flk1: EGFP) zebrafish embryos in vivo assay. Fluorescently labelled 3hpf period embryos were treated with different doses of 4c and incubated at 28.5 °C. Until 30hpf, zebrafish was imaged under a fluorescent microscopy to observe the affection of applied agents on intersegmental vessels (ISVs) development. As shown in the Figure 11, ISVs were clearly observed in newly born zebrafish embryos of solvent-treated control group, which were growing at regular longitudinal and equidistant intervals.
The transgenic flk: enhanced GFP zebrafish embryos were transferred into 6-well plates (n = 30 per well) with 1 ml of aquaculture water (0.2 g/L of Instant Ocean Salt in distilled water) and raised at 28 °C. Then the embryos dechorionated at 12 h post fertilisation (hpf) was treated with the indicated concentrations of 4c or vehicle (DMSO). About 30 embryos were screened for each concentration gradient. At 30hpf, the zebrafish embryos were stripped, anaesthetised, and fixed with agarose gel. The images were taken under the microscope, and the number of blood vessels between the segments was recorded. Results were obtained from three independent determinations and presented as mean ± SD.

The structures appear in SMILES notation.

`COc1cc(C(=O)/C(F)=C/c2c[nH]c3cc(Br)ccc23)cc(OC)c1OC` [4c, (Z)-3–(6-bromo-1H-indol-3-yl)-2-fluoro-1–(3,4,5-trimethoxyphenyl)prop-2-en-1-one]: in assay [1] (Table 2, triplicate), the IC50 was determined as 0.057 ± 0.006 µM. The compound also registered an IC50 in assay [1] (three separated experiments, 72 h) of 0.0571 ± 0.006 µM. Moreover, in assay [2], the “Cyclin B1 expression” value is recorded as “caused a decrease in Cyclin B1”, the P21 expression entry is listed as “increased the expression of tumour suppressor protein P21” and the “phosphorylation levels of Cdc2” value is reported as “decrease the phosphorylation levels of Cdc2 in a concentration-dependent manner”. Moreover, the “cleaved Caspase-3/-7/-9 expression” value in assay [3] is recorded as “up-regulation of cleaved Caspase-3/-7/-9”. In assay [4], the “number of cells invaded into lower chamber” value is “gradually decreased in a dose-dependent manner”. Moreover, the “embryo development and blood vessels” value in assay [5] (dose ≥ 5 µM) is “marked delay in development and only scattered or fragmentary blood vessels were observed”. For the same compound, the “lowest dose with anti-angiogenic phenotype” value in assay [5] (imaged at 30hpf) was determined as 2.5 µM. The “number and length of intersegmental vessels (ISVs)” value in assay [5] (imaged at 30hpf, different doses) is listed as “all dose-dependently reduced”.

In general, IC50 refers to the concentration that inhibits the measured activity by half. A low value points to greater potency in that assay.
